Test results taken from patent US20240358727A1, “MICROSCALE THERMOPHORESIS TO EVALUATE CHANNEL LIPID INTERACTIONS AND METHODS OF TREATING NAV CHANNELS RELATED DISEASES” (Northeastern University, priority 2023, published 2024).
Entries after “also recorded” stand apart in the source; their conditions may differ.

Experiments:
[1] = molecular target: T1, Nav1.5 channel currents (INa, ILATE) in M3q iPS-CMs (Homo sapiens, UniProt Q14524); assay: Whole-cell patch-clamp of INa and ILATE in M3q-DREADD iPS-CMs activated with CNO; type: cell-based; settings: for effect on CNO-evoked increase in ILATE / effect on CNO-evoked leftwards shifts in V½ACT and V½SSI: 200 μM diC8-PIP2 in pipette; for effect on CNO (M3q activation) effects on V½ACT, V½SSI and ILATE: staurosporine 1 μM 1-hour preincubation, BAPTA 10 mM in pipette, U73122 5 μM, diC8-PIP2 200 μM in pipette
T1 construct: host or cells: human iCell^2 iPS cardiomyocytes (transfected with M3q DREADD in A5; endogenous AT1 receptor in A7)
T1 sequence (Q14524 whole entry): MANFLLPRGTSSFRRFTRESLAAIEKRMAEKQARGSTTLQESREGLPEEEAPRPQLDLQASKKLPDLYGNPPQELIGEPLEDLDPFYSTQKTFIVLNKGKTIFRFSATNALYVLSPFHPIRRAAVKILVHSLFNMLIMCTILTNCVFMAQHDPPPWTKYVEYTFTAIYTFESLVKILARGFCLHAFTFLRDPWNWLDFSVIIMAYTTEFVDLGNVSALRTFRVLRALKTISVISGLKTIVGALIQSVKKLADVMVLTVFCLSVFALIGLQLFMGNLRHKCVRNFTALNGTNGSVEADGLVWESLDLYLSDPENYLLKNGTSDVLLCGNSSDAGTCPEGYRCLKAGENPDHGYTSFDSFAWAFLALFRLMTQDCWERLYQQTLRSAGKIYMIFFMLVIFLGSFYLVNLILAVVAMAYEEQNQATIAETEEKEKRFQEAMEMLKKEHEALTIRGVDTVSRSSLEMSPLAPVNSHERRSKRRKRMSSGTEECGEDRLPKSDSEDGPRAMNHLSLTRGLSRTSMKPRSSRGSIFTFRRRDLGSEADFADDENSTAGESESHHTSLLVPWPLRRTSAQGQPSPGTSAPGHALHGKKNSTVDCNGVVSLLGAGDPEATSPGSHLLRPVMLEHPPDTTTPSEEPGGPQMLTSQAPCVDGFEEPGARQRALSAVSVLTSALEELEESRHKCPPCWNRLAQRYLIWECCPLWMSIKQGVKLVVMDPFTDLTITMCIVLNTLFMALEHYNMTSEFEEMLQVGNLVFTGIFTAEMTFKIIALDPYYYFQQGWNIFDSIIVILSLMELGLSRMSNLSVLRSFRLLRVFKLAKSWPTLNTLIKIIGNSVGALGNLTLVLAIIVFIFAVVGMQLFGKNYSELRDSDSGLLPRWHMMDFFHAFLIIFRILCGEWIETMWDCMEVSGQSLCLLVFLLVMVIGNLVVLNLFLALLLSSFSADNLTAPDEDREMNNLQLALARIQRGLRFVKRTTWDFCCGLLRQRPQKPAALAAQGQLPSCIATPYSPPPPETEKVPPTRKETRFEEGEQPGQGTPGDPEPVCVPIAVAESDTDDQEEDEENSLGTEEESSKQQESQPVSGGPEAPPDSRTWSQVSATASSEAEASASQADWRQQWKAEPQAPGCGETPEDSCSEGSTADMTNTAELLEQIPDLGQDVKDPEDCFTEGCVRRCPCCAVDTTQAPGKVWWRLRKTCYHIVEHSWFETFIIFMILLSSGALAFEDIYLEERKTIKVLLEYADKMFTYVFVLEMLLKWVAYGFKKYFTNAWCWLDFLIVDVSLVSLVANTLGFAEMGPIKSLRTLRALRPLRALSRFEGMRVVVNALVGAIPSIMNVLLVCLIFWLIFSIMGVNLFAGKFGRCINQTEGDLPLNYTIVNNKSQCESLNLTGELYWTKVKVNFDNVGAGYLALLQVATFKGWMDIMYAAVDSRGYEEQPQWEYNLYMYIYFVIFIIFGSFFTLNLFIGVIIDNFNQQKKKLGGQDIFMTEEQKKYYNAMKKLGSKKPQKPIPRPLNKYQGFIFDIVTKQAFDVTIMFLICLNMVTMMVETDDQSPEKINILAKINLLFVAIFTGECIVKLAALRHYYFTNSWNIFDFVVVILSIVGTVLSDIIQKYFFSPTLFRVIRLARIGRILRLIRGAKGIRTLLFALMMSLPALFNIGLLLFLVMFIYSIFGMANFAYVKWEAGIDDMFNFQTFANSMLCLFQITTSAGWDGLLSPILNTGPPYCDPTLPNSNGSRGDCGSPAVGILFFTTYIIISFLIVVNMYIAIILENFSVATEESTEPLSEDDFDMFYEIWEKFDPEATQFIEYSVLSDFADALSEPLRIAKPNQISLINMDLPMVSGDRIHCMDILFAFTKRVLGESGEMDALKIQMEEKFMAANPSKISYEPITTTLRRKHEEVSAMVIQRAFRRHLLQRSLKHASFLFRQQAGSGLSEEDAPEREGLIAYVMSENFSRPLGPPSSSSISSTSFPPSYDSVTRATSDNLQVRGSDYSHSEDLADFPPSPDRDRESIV
Procedure: (§1) Control is CNO application to cells with no M3q. Mean±SD % fluorescence change for 20 cells per group; an example photobleaching montage is inset. […] Leftwards shifts in each parameter are precluded by U73122 or by 200 μM diC8-PIP2 in the pipette but are not sensitive to staurosporine or BAPTA. The cells were perfused with an extracellular solution containing (in mM): 130 NaCl, 5 CsCl, 1.2 MgCl2, 1.5 CaCl2), 8 Glucose, 10 HEPES (pH7.4). […] nitrendipine was added to the recording solution to block Ca^2+ flux through Cav channels. Patch pipettes with a resistance of 2.5-4 MQ are filled with a solution containing (in mM): 60 CsCl, 80 CsF, 2 MgCl2, 10 EGTA, 5 Na2ATP, 5 HEPES (pH 7.4). Currents were low pass (Bessel) filtered at 9 kHz and digitized at 50 kHz and were collected from cells with a series resistance <15 MQ; this was compensated by 70%.
Results. Studies are designed to evaluate if hydrolysis of PIP2 modulates Nav1.5 channel currents in cardiomyocytes. To perform these experiments, we used human iPS cardiomyocytes (iCell^2 iPS-CMs) from Fuji-Film Cellular Dynamics. These iPS-CMs are a valuable model system for human cardiomyocytes that retain many of the key characteristics of the native cells. Here, we transfected the iPS-CMs to express the Gαq-coupled M3q Designer Receptors Exclusively Activated by Designer Drugs (DREADD) receptor. We use a magnetic transfection system from Oz Biosciences that we have previously employed with cardiomyocytes. First, we tested the efficacy of M3q to hydrolyze PIP2 in our model system. To accomplish this, we studied uncoupling of the PIP2 biosensor iRFP-PHPLCδ1 from the plasma membrane in response to chemogenic activation of M3q by 100 nM clozapine N-oxide (CNO, Tocris Biosciences).
These findings are consistent with our prior observations and the work using optogenetically activated PI-phosphatases to deplete PIP2 in HEK293 cells […] Xenopus laevis oocytes. […] Having established a time frame for PIP2 hydrolysis in our system, we used whole-cell patch-clamp to study INa in paired experiments, before and after chemogenic activation of M3q. Applying 100 nM CNO evoked a leftward shift in the current-voltage (I-V) relationship of INa such that peak INa shifted from −25 to −35 mV. At −35 mV, the peak current-density increased from −220±5 pA/pF to −266±4 pA/pF at −35 mV (n=8, P<0.001, paired Student's t-test). […] However, in contrast to our findings with Nav1.4, activating M3q signaling also left-shifted the steady state inactivation curve of Nav1.5 (V½SSI), from −81.4±2 to −89.7±2 mV (n=8, P<0.01, paired t-test; FIGS. 2C, 2D). These studies indicate that Nav1.5 channels are regulated by hydrolysis of PIP2 and that there are distinctions between PIP2 regulation of Nav1.5 and Nav1.4.
Next, we studied the effect of M3q-activation on ILATE by recording currents evoked by a 400 ms depolarizing pulse to −20 mV before and during receptor activation. The magnitude of ILATE represents the mean current 150-200 ms after peak INa and is expressed as a percentage of peak INa. […] The effects of M3q activation on V½ACT, V½SSI, and the development of ILATE were not affected by staurosporine (1 μM, 1-hour preincubation) or BAPTA (10 mM in the recording pipette), making a role for IP3 or DAG unlikely. […] Similar data were obtained for Nav1.5 expressed with Navβ1 and the M3q-DREADD receptor in HEK293T cells. This experiment validates that the findings are not restricted to a particular model system or cellular environment.
Measure modulation in INa and ILATE by endogenous Gαq signaling. Like native cardiomyocytes, human iPS-CMs express AT1 receptors. Here, the effects of Ang II (Tocris) on Nav1.5 channel function in iPS-CMs is tested using four whole-cell patch-clamp recording protocols. […]

[2] = tested on: PIP2 hydrolysis (iRFP-PHPLCδ1 biosensor); assay: TIRFM uncoupling of PIP2 biosensor iRFP-PHPLCδ1 from the membrane of M3q iPS-CMs; type: cell-based, human; settings: 100 nM CNO
Procedure: as §1
Results. Studies are designed to evaluate if hydrolysis of PIP2 modulates Nav1.5 channel currents in cardiomyocytes. To perform these experiments, we used human iPS cardiomyocytes (iCell^2 iPS-CMs) from Fuji-Film Cellular Dynamics. These iPS-CMs are a valuable model system for human cardiomyocytes that retain many of the key characteristics of the native cells. Here, we transfected the iPS-CMs to express the Gαq-coupled M3q Designer Receptors Exclusively Activated by Designer Drugs (DREADD) receptor. […]

[3] = tested on: Nav1.5 channel currents (INa, ILATE) in iPS-CMs; assay: Whole-cell patch-clamp of INa and ILATE in iPS-CMs treated with Ang II; type: cell-based, human; settings: 100 nM Ang II
Procedure: Control is CNO application to cells with no M3q. Mean±SD % fluorescence change for 20 cells per group; an example photobleaching montage is inset. […] The cells were perfused with an extracellular solution containing (in mM): 130 NaCl, 5 CsCl, 1.2 MgCl2, 1.5 CaCl2), 8 Glucose, 10 HEPES (pH7.4). […] nitrendipine was added to the recording solution to block Ca^2+ flux through Cav channels. Patch pipettes with a resistance of 2.5-4 MQ are filled with a solution containing (in mM): 60 CsCl, 80 CsF, 2 MgCl2, 10 EGTA, 5 Na2ATP, 5 HEPES (pH 7.4). Currents were low pass (Bessel) filtered at 9 kHz and digitized at 50 kHz and were collected from cells with a series resistance <15 MQ; this was compensated by 70%.
The data are mean±sem for 4 cells per experiment.
Measure modulation in INa and ILATE by endogenous Gαq signaling. Like native cardiomyocytes, human iPS-CMs express AT1 receptors. Here, the effects of Ang II (Tocris) on Nav1.5 channel function in iPS-CMs is tested using four whole-cell patch-clamp recording protocols. Recording solutions and amplifier settings are described in the legend of FIG. 2: • i) I-V (and G-V): The current-voltage (I-V) relationship reports on current-density across the physiological voltage range and provides a conductance voltage (G-V) relationship that is normalized and fitted with a Boltzmann function to illustrate the voltage-dependence of activation, V½ACT. • ii) SSI: a paired-pulse protocol to determine the voltage-dependence of steady-state inactivation (SSI). The prepulse is incrementally depolarized while the test-pulse remains at a fixed amplitude. […] This parameter is studied using paired steps to −30 mV and incrementally increasing the duration between the pulses. • iv) ILATE is studied using 400 ms depolarizing pulses to −20 mV. The pulse is repeated every 10 seconds for the duration of a time-course study. Subsequently, the cell is exposed to the state-dependent, late-current blocker ranolazine at 1 μM, as previously described. The magnitude of ILATE represents the mean current 150-200 ms after peak INa and is expressed as a percentage of peak INa, following ranolazine subtraction. The time course of a change in ILATE and the change in the time constant of fast inactivation are evaluated.
In each case, Nav1.5 currents is studied before and after the administration of Ang II. […] Next, we study the concentration-dependence of these effects, spanning the pathophysiological range (20-200 nM). Utilizing a non-saturating concentration of Ang II, we introduce pharmacological tools to determine the effects on Nav1.5 function attributable to PIP2 hydrolysis. […] Subsequently, we block PIP2 hydrolysis using the PLCβ inhibitor, U73122 (5 μM, Tocris Biosciences). […] We test if downstream products of PIP2 hydrolysis alter Nav1.5 currents using the PKC inhibitor staurosporine (1 μM, 1-hour preincubation, Sigma-Aldrich) and the Ca^2+ chelator, BAPTA (10 mM in the pipette, Sigma-Aldrich).

O=C(O)CN(CC(=O)O)c1ccccc1OCCOc1ccccc1N(CC(=O)O)CC(=O)O [BAPTA]
effect on CNO-evoked increase in ILATE ([1]; 100 nM CNO): not sensitive
effect on CNO-evoked leftwards shifts in V½ACT and V½SSI ([1]; 100 nM CNO): not sensitive
effect on CNO (M3q activation) effects on V½ACT, V½SSI and ILATE ([1]; 100 nM CNO): not affected; also recorded: not blocked

C[N+]1([O-])CCN(C2=Nc3cc(Cl)ccc3Nc3ccccc32)CC1 [CNO, clozapine N-oxide]
time to complete uncoupling of iRFP-PHPLCδ1 from the membrane [2]: ≤ 200 s
fold increase in ILATE ([1]; 100 nM CNO vs control): 16 fold
ILATE ([1]; 100 nM CNO, 400 ms pulse to −20 mV, control 0.22%): ~3.9 % of peak INa
peak current-density ([1]; 100 nM CNO, at −35 mV, before −220±5): −266±4 pA/pF
leftward shift in V½ACT ([1]; 100 nM CNO, paired before/after): −10±5 mV
voltage of peak INa (I-V relationship) ([1]; 100 nM CNO, before CNO −25 mV): −35 mV
V½SSI ([1]; 100 nM CNO, before −81.4±2): −89.7±2 mV

COc1ccc2c(c1)CC[C@@H]1[C@@H]2CC[C@]2(C)[C@@H](NCCCCCCN3C(=O)C=CC3=O)CC[C@@H]12 [U73122]
uncoupling of iRFP-PHPLCδ1 after M3q activation ([2]; U73122 5 μM): does not occur
effect on CNO-evoked increase in ILATE ([1]; 100 nM CNO): precluded
effect on CNO-evoked leftwards shifts in V½ACT and V½SSI ([1]; 100 nM CNO): precluded
effect on CNO (M3q activation) effects on V½ACT, V½SSI and ILATE ([1]; 100 nM CNO): blocked; also recorded: abolished

CN[C@@H]1C[C@H]2O[C@@](C)([C@@H]1OC)n1c3ccccc3c3c4c(c5c6ccccc6n2c5c31)C(=O)NC4 [staurosporine]
effect on CNO-evoked increase in ILATE ([1]; 100 nM CNO): not sensitive
effect on CNO-evoked leftwards shifts in V½ACT and V½SSI ([1]; 100 nM CNO): not sensitive
effect on CNO (M3q activation) effects on V½ACT, V½SSI and ILATE ([1]; 100 nM CNO): not affected; also recorded: not blocked

angiotensin II (DRVYIHPF; Angiotensin-2; UniProt P01019 25-32, looked up) [Ang II, agonist of the Gαq-coupled AT1 receptor (Tocris)]
leftward shift in V½ACT [3]: −7 mV
leftward shift in V½SSI [3]: −7 mV
peak INa [3]: increased; also recorded: elevated
time over which ILATE increased [3]: ~250 s
ILATE ([3]; before 0.15±0.1): 3.6±0.3 % of IPEAK
